Test results taken from paper PMC5957078 (Journal of medicinal chemistry, 2016).
≈ marks a conversion by molar mass, not a printed value. Read-outs that look alike come from different tables or passages of the source.

Legend:
[1] = tested on: E. coli G28 (beta lactamase); assay: microbe, parasite or virus in culture; format: cell-based; details: Escherichia coli
[2] = tested on: E. coli ARS108 (Extended Spectrum Beta Lactamase); assay: Antibiotic susceptibility with and without 6d, broth microdilution; format: cell-based, Escherichia coli
S. aureus C1BP13 (MRSA) = assay: as above; format: cell-based; details: Staphylococcus aureus
[3] = target: T1, serine/threonine kinase IreK (Enterococcus faecalis, UniProt Q820A8); assay: biochemical
T1 sequence (Q820A8 1-718): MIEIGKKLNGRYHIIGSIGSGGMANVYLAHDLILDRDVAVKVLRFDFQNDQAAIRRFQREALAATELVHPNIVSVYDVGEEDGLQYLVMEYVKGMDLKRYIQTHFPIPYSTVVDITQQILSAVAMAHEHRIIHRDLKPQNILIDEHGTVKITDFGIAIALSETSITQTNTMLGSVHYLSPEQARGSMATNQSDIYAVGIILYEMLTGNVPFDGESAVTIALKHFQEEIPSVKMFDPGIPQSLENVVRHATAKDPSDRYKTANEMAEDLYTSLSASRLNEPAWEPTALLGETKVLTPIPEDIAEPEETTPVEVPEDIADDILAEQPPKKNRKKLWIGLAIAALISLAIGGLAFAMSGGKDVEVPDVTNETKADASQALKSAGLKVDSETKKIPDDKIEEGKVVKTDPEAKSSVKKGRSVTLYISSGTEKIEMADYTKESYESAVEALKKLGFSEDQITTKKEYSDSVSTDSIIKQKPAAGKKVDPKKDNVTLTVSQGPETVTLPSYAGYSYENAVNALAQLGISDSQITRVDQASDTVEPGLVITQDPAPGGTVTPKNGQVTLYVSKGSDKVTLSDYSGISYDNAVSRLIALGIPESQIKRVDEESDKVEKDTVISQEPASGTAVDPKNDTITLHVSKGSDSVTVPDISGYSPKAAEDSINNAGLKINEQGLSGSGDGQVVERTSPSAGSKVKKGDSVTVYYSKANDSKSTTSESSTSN

E. coli DNA-gyrase = E. coli DNA-gyrase (Escherichia coli, UniProt P0AES6); assay: biochemical; format: biochemical; details: for inhibition of DNA-gyrase: at the highest tested concentrations
MRSA TCH1516 USA300 = details: for diameter of the ring of growth inhibition: 20 μg of compound per disk; for growth inhibition, disk diffusion: 100 μg per disk
B. subtilis JH642 = assay: Growth curves to distinguish bactericidal from bacteriostatic activity; format: cell-based, Bacillus subtilis; details: for bactericidal or bacteriostatic: 50 μg/ml added at OD600 0.5-0.6; for cell lysis in growing culture: 50 μg/ml, time course of 9 h, compared with vancomycin
[4] = tested on: resistant isolates (E. coli and S. aureus); format: cell-based
[5] = tested on: E. coli ATCC25922 (quality control strain); assay: Antibiotic susceptibility, broth microdilution; format: cell-based; details: Escherichia coli
[6] = tested on: E. coli G02 (ofloxacin-resistant); assay: Antibiotic susceptibility with and without 6d, broth microdilution; format: cell-based, Escherichia coli; details: for MBC / MIC: Escherichia coli
[7] = tested on: S. aureus C1P15 (penicillinase); assay: microbe, parasite or virus in culture; format: cell-based; details: Staphylococcus aureus
Gyrase B = details: ligand of complex PDB: 3TTZ; cited from earlier work
[8] = Escherichia coli, 144 h, read-out: MBC [with 6d]
[9] = Escherichia coli, 144 h, read-out: MIC [with 6d]

CC1(C)S[C@@H]2[C@H](NC(=O)[C@H](N)c3ccc(O)cc3)C(=O)N2[C@H]1C(=O)O [AMX, amoxicillin]
MBC [1]: > 16 µg/mL
MIC [1]: > 16 µg/mL
MBC ([1]; 144 h, read-out: MBC [with 6d]): 8 µg/mL (≈ 21.9 µM)
MBC ([2]; Escherichia coli): > 16 µg/mL
MIC ([2]; Escherichia coli): > 16 µg/mL
MBC [2, 8]: > 16 µg/mL
MIC [2, 9]: 0.03 µg/mL (≈ 0.0821 µM)

Cc1onc(-c2ccccc2Cl)c1C(=O)N[C@@H]1C(=O)N2[C@@H]1SC(C)(C)[C@@H]2C(=O)O [CLX, cloxacillin]
MBC (S. aureus C1BP13 (MRSA)): > 8 µg/mL
MIC (S. aureus C1BP13 (MRSA)): > 8 µg/mL
MBC (S. aureus C1BP13 (MRSA); 144 h, read-out: MBC [with 6d]): > 8 µg/mL
MIC (S. aureus C1BP13 (MRSA); 144 h, read-out: MIC [with 6d]): < 0.015 µg/mL

CO/N=C(\C(=O)N[C@@H]1C(=O)N2C(C(=O)O)=C(COC(C)=O)CS[C@H]12)c1csc(N)n1 [CTX, cefotaxime]
MIC [1]: > 16 µg/mL
MIC ([2]; ARS108, antibiotic alone): > 8 µg/mL
MIC [with 6d] ([2]; ARS108, with 6d at 50μg/mL): < 0.03 µg/mL
MBC ([2]; Escherichia coli): > 8 µg/mL
MIC ([2]; Escherichia coli): > 16 µg/mL
MBC [2, 8]: > 8 µg/mL
MIC [2, 9]: 0.03 µg/mL (≈ 0.0659 µM)

Nc1ccc(-c2ccc([N+](=O)[O-])s2)cc1 [Compound 6c, 4-(5-nitro-2-thienyl)benzenamine]
IC50 [3]: > 800 µM
IC50 (E. coli DNA-gyrase): > 400 µM
inhibition of DNA-gyrase (E. coli DNA-gyrase): inhibited DNA-gyrase

O=[N+]([O-])c1ccc(-c2ccccc2O)s1 [Compound 6d, 2-(5-nitrothiophen-2-yl)phenol]
IC50 [3]: > 800 µM
diameter of the ring of growth inhibition (MRSA TCH1516 USA300): did not change
growth inhibition, disk diffusion (MRSA TCH1516 USA300): clear rings of growth inhibition
IC50 (E. coli DNA-gyrase): ≥ 400 µM
inhibition of DNA-gyrase (E. coli DNA-gyrase): inhibited DNA-gyrase
bactericidal or bacteriostatic (B. subtilis JH642): bactericidal rather than bacteriostatic
cell lysis in growing culture (B. subtilis JH642): slow bacterial lysis
adjuvant activity in association with several antibiotics ([4]; resistant isolates of E. coli and S. aureus): restored the sensitivity of the resistant isolates tested
concentration with bactericidal activity when used alone ([4]; without antibiotic, all isolates): over 32 μg/mL

O=[N+]([O-])c1ccc(-c2cccc(O)c2)s1 [Compound 6e, 3-(5-nitrothiophen-2-yl)phenol]
IC50 [3]: > 800 µM
ring of growth inhibition (MRSA TCH1516 USA300; 4 μg per disk): reduced ring of growth inhibition
diameter of the ring of growth inhibition (MRSA TCH1516 USA300): did not change
growth inhibition, disk diffusion (MRSA TCH1516 USA300): clear rings of growth inhibition
IC50 (E. coli DNA-gyrase): > 800 µM
bactericidal or bacteriostatic (B. subtilis JH642): bactericidal rather than bacteriostatic
cell lysis in growing culture (B. subtilis JH642): more rapid cell lysis and clearing of the culture

CC(=O)c1ccc(-c2cccc(N)c2)s1 [Compound 6h, 1-(5-(3-aminophenyl)thiophen-2-yl)ethanone]
IC50 [3]: > 800 µM
IC50 (E. coli DNA-gyrase): > 800 µM

CC(=O)c1ccc(-c2ccc(N)cc2)s1 [Compound 6i, 1-(5-(4-aminophenyl)thiophen-2-yl)ethanone]
IC50 [3]: > 800 µM
IC50 (E. coli DNA-gyrase): > 800 µM

CC(=O)c1ccc(-c2cccc(O)c2)s1 [Compound 6k, 1-(5-(3-hydroxyphenyl)thiophen-2-yl)ethanone]
IC50 [3]: > 800 µM
IC50 (E. coli DNA-gyrase): > 400 µM
inhibition of DNA-gyrase (E. coli DNA-gyrase): inhibited DNA-gyrase

COc1cccc(-c2ccc([N+](=O)[O-])s2)c1OC [Compound 6s, 2-(2,3-dimethoxyphenyl)-5-nitrothiophene]
IC50 [3]: > 800 µM
IC50 (E. coli DNA-gyrase): > 800 µM

O=[N+]([O-])c1ccc(-c2ccc(NCCO)cc2)s1 [Compound 7c, 2-((4-(5-nitrothiophen-2-yl)phenyl)amino)ethanol]
IC50 [3]: > 800 µM
IC50 (E. coli DNA-gyrase): > 400 µM
inhibition of DNA-gyrase (E. coli DNA-gyrase): inhibited DNA-gyrase

CC1COc2c(N3CCN(C)CC3)c(F)cc3c(=O)c(C(=O)O)cn1c23 (centres unmarked) [OFX, ofloxacin]
MIC [5]: 0.06 µg/mL (≈ 0.166 µM)
MBC [6]: > 8 µg/mL
MIC [6]: > 8 µg/mL
MBC ([6]; 144 h, read-out: MBC [with 6d]): > 8 µg/mL
MIC ([6]; 144 h, read-out: MIC [with 6d]): < 0.015 µg/mL
bactericidal effect of the antibiotic after addition of 6d ([6]; G02-resistant strain, with 6d): did not restore the bactericidal effect

CC1(C)S[C@@H]2[C@H](NC(=O)Cc3ccccc3)C(=O)N2[C@H]1C(=O)O [PNG, penicillin G]
MBC [7]: > 8 µg/mL
MIC [7]: > 8 µg/mL
MBC ([7]; 144 h, read-out: MBC [with 6d]): 2 µg/mL (≈ 5.98 µM)
MIC ([7]; 144 h, read-out: MIC [with 6d]): < 0.015 µg/mL
MBC (S. aureus C1BP13 (MRSA)): > 8 µg/mL
MIC (S. aureus C1BP13 (MRSA)): > 8 µg/mL
MBC (S. aureus C1BP13 (MRSA); 144 h, read-out: MBC [with 6d]): 4 µg/mL (≈ 12 µM)
MIC (S. aureus C1BP13 (MRSA); 144 h, read-out: MIC [with 6d]): < 0.015 µg/mL

O=C(O)c1cn(C2CC2)c2cc(N3CCNCC3)c(F)cc2c1=O [ciprofloxacin]
inhibition of DNA-gyrase induced supercoiling of relaxed plasmid DNA (E. coli DNA-gyrase; control at 200 μM): completely inhibited

Cc1[nH]c(C(=O)N[C@@H]2CCN(c3ncc(C(=O)O)s3)C[C@@H]2F)c(Cl)c1Cl [pyrrolamide, 2-[(3S,4R)-4-{[(3,4-dichloro-5-methyl-1H-pyrrol-2-yl)carbonyl]amino}-3-fluoropiperidin-1-yl]-1,3-thiazole-5-carboxylic acid]
IC50 (Gyrase B): 0.004 µM
